Experiment [1] has as its system Pol-I transcription (rRNA synthesis) in HCT116 p53−/− cells. The experiment in a line: IC50 of Pol-I transcription (rRNA synthesis) in cells. The class given is cell-based, human. The note with it: Homo sapiens. Here is the method: (§1) Cells were grown until 70% confluent and then treated with compounds for 30 min. The following concentrations were used: ActD: AD1–3 nM; AD2–3 µM; Camptothecin (CPT): 8 µM; ethidium bromide (EB): 40 µM; crystal violet (CV): 20 µM; Pro: 2 µM; CX5461: 5 µM. RNA was purified using the RNeasy purification kit (Qiagen) following the manufacturer’s instructions and the RNA concentration was determined spectroscopically. A total 1 µg of RNA was converted to cDNA using the High Capacity RNA-to-cDNA reverse transcriptase kit (Applied Biosystems, Waltham, MA, USA). Then 47/45S pre-rRNA levels were analyzed on the LighCycler 480 thermocycler (Roche) using primers and conditions described previously.
Next, we determined IC50 concentrations for EtBr, Pro, CPT, DAPI and CV in cells by measuring the level of Pol-I transcription at various compound concentrations (Table 2). For this assay we used the HCT116 p53^−/− cell line to avoid any effect of p53 dependent repression of Pol-I transcription.

Experiment [2] concerns Pol-I specific transcription. Put plainly: Pol-I specific transcription in vitro with or without Top 1 (purified GTFs or HeLa NE; immobilized linear or supercoiled template). Conditions: GTFs lacking Top 1 + immobilized linear template, HeLa NE + supercoiled plasmid. The experiment is classed as biochemical, human. The protocol: Specific Pol I driven transcription reactions were performed as described using 200 ng of supercoiled plasmid DNA or immobilized rDNA promoter. Reactions were supplemented with 1 µL HeLa nuclear extract or with highly purified general transcription factors (GTF: 2 µL SL1, 2.5 µL Pol-I and 0.1 µL UBF). S1 nuclease protection was performed as described with a 60 bp ^32P-5′-end labelled oligonucleotide containing a sequence identical to the region between −20 and +40 of the template strand in the human rRNA gene promoter. […] The standard deviations were calculated from three independent experiments.

Experiment [3] has as its system Pol-I specific transcription (human rRNA gene promoter). Put plainly: In vitro Pol-I specific (promoter-driven) transcription assay, HeLa nuclear extract, S1 nuclease protection. The note with it: 1 µL HeLa nuclear extract, 100 ng plasmid DNA containing rRNA promoter, triplicates. The class given is biochemical. The protocol:
[…] Reactions were supplemented with 1 µL HeLa nuclear extract or with highly purified general transcription factors (GTF: 2 µL SL1, 2.5 µL Pol-I and 0.1 µL UBF). S1 nuclease protection was performed as described with a 60 bp ^32P-5′-end labelled oligonucleotide containing a sequence identical to the region between −20 and +40 of the template strand in the human rRNA gene promoter. […] The standard deviations were calculated from three independent experiments.
We tested a range of DNA intercalators and minor/major groove binders for the potential to inhibit Pol-I and determined IC50 for each drug using an in vitro Pol-I specific transcription assay. This assay primarily measures the efficiency of the initial stages of transcription which include preinitiation complex (PIC) formation, first phosphodiester bond synthesis and promoter clearance (see reviews and for a detailed description of the Pol-I transcription cycle). The reactions were supplemented with supercoiled rDNA template and HeLa nuclear extract (NE) and the level of specific transcript was determined by S1 nuclease protection assay as described.

Experiment [4] has as its system nascent RNA synthesis in HCT116 p53−/− cells. Put plainly: Nascent RNA detection in cells by 5EU incorporation (click labelling, confocal microscopy). The experiment is classed as cell-based, human. The note with it: EB 40 µM, Pro 2 µM, CX5461 5 µM, 30 min treatment then 1 h 5EU. Here is the method:
Cells were grown until 50–60% confluent on sterilized glass slides (Superfrost® Plus microscope slides, Menzel-Glaser) and then were treated with compounds or vehicle (as indicated) for 30 min, followed by the addition of 5EU (5-Ethynyl-uridine, 1 mM final concentration) and further incubation for 1 h. The following concentrations were used: Actinomycin D (ActD): 3 µM; ethidium bromide (EB): 40 µM; proflavine (Pro): 2 µM; CX5461: 5 µM.
Cells were fixed with 3.7% paraformaldehyde and permeabilized with 0.5% Triton X-100 in PBS. Nascent RNA was fluorescently labelled using Click-IT® Cell Reaction Buffer Kit (Invitrogen, Waltham, MA, USA) supplemented with Cy5 Azide (Sigma Aldrich) according to manufacturer’s instruction. Nuclei were stained with Hoechst 33342 and images were acquired with a Leica TCS SP5 confocal microscope equipped with an x63 oil-filled objective. Leica Application Suite X (LAS X) software was used for quantification of 5EU incorporation. Box-and-whisker plots of quantification of 5EU incorporation were obtained with Excel. They show the median, the 25% and 75% quantiles, as well as outliers.
Although we see no significant effect of the intercalators and grove-binders on specific Pol-II transcription in vitro we performed experiments aiming to explore effect of these compounds on general level of Pol-II/III transcription in cells. To this end we used two approaches. Firstly, we measure the level of nascent RNA synthesis in […] p53^−/− cells treated with proflavine, ethidium bromide, CX-5461 (specific inhibitor of Pol-I transcription) at concentrations sufficient to inhibit about 90% of Pol-I transcription as shown in Figure 5A. As a control we used high concentration of ActD (3µM) that inhibits activity of all […] polymerases. Cells were treated with the selected compounds or a vehicle for 30 min and then 5EU (5-Ethynyl-uridine) was added and incubation was continued for another hour. During this time, 5EU is incorporated into any newly synthesized RNA, and the level of incorporation can later be assessed using a combination of “click” approach and confocal microscopy.

Experiment [5] relates to Pol-I transcription (47/45S pre-rRNA) in HCT116 p53−/− cells. The experiment in a line: 47/45S pre-rRNA level in cells by qPCR. The class given is cell-based, human. The note with it: 30 min, CPT 8 µM, EB 40 µM, CV 20 µM, Pro 2 µM, CX5461 5 µM (Figure 5A). Here is the method:
as §1
Pol-II and Pol-III transcripts were analyzed as described previously. All signals were normalized to 18S rRNA level. The standard deviation was calculated from three independent experiments.
For orientation: In qPCR the cycle at which signal appears reflects the starting amount.

The test system of experiment [6] is UBF occupancy at the rDNA, HCT116 p53−/− cells. Put plainly: ChIP of the rDNA repeat: UBF occupancy. The experiment is classed as cell-based, human. Conditions: 30 min at IC50 in cells: EB 9.16 µM; CV 5 µM; Pro 0.5 µM. The protocol:
ChIP assays were carried out as described previously. In brief, cells were grown until 70% confluent, then treated with compounds for 30 min. The following concentrations were used: ethidium bromide (EB)—9.16 µM; crystal violet (CV)—5 µM; proflavine (Pro)—0.5 µM. Cells were cross-linked with formaldehyde (final concentration 1%) for 10 min, and the cross-linking stopped by the addition of glycine (final concentration 0.125 M) for 5 min. Cross-linked chromatin was sheared using a Biorupter (Diagenode, Liege, Belgium) until 300-base pair average size. Immunoprecipitation was carried out using chromatin isolated from 1 × 10^6 cells, antibodies listed in Supplementary Table S2 and 30 μL of Protein A/Protein G magnetic beads (Invitrogen). Purified immunoprecipitated DNA was analyzed by two tetraplex quantitative PCR panels designed for eight regions of the rDNA repeat; promoter, intergenic spacer 4 (IGS4), 18S, 5.8S, 28S, terminator, IGS1, and 5′externally transcribed spacer (ETS). […] Signal were quantified using internal standards and specific signals were calculated as a difference between the signals from the specific antibody and from the negative control (an appropriate IgG). Results were expressed as the amount relative to input chromatin and normalized to control IgG levels, with the standard deviations calculated from three independent ChIP experiments. […]

pIC50: −log10 of the molar value. Like-named read-outs stand apart in the source and are kept apart here.

For `CC[C@@]1(O)C(=O)OCc2c1cc1n(c2=O)Cc2cc3ccccc3nc2-1` [Camptothecin], in experiment [1] (HCT-116, read-out: IC50 (rRNA Synthesis)), the pIC50 is 5.70. For the same compound, in experiment [2], the “effect on Pol-I specific transcription” value is recorded as “represses Pol-I specific transcription under all conditions”.
For the compound `Nc1ccc2cc3ccc(N)cc3nc2c1` [Proflavine, proflavine], the pIC50 is 6.46 in experiment [3] and 6.32 in experiment [1] (HCT-116, p53 null HCT116 cells, triplicates, total RNA analyzed by S1 nuclease protection assay, read-out: IC50 (rRNA Synthesis)). The “distribution (nucleolar localization) of nascent RNAs” value in experiment [4] is “affected the distribution of nascent RNAs”. For the same compound, the “inhibition of all transcription (5EU incorporation), effect of ActD set to be 100% inhibition” value in experiment [4] (HCT116 p53−/− cells) came to 48%. Moreover, the “inhibition of Pol-I transcription” value in experiment [5] was “about 90%”. Besides, the UBF occupancy result in experiment [6] is given as “affected”.

Broadly, the pIC50 is the IC50 on a negative log10 scale, so that one unit is a factor of ten.

(Values after paper PMC8466728, “DNA Intercalators Inhibit Eukaryotic Ribosomal RNA Synthesis by Impairing the Initiation of Transcription” (Genes, 2021).)
